{
  "source": "ChEMBL document CHEMBL6096738",
  "about": "“Optimization of Single Relaxin B-Chain Peptide Leads to the Identification of R2R01, a Potent, Long-Acting RXFP1 Agonist for Cardiovascular and Renal Diseases” (J Med Chem, 2025)",
  "format_in_all_cases": "functional, cell-based",
  "key": {"Relaxin receptor 1 [1]": {"biological_target": "T1, Relaxin receptor 1 (Homo sapiens, UniProt Q9HBX9)", "T1 sequence (Q9HBX9 whole entry)": "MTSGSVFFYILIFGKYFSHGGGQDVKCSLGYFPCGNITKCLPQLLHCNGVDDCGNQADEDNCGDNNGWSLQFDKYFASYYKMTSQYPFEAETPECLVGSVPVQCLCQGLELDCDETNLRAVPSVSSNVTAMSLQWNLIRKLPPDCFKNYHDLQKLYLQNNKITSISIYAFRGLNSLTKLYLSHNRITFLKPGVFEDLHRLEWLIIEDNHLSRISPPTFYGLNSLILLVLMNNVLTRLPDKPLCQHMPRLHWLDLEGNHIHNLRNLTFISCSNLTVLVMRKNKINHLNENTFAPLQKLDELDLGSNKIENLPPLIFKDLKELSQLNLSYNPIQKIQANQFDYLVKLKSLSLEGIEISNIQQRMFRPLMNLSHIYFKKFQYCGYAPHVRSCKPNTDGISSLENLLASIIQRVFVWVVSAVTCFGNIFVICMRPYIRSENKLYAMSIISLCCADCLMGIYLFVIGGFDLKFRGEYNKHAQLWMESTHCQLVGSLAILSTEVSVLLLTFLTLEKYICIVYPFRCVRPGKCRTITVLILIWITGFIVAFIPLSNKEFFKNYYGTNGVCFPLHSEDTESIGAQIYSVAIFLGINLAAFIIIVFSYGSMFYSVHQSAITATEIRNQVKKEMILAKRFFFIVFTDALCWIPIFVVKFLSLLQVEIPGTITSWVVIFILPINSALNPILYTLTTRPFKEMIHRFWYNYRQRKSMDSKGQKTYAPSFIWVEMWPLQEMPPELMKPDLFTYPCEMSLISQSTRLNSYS", "experiment": "Agonist activity at human RXFP1 expressed in 2%HSA treated human OVCAR-5 cells assessed as intracellular cAMP accumulation incubated for 30 mins with 2% HSA pretreated compound by HTRF assay"}, "[2]": {"biological_target": "T2, Relaxin receptor 1 (Homo sapiens) (UniProt Q9HBX9)", "T2 sequence (whole entry)": "T1 sequence (Q9HBX9 whole entry)", "experiment": "Agonist activity at human RXFP1 expressed in human OVCAR-5 cells assessed as intracellular cAMP accumulation by measuring maximal efficacy incubated for 30 mins by HTRF assay relative to control", "conditions": "filed as agonist"}, "[3]": {"biological_target": "T2, Relaxin receptor 1 (Homo sapiens)", "experiment": "Agonist activity at human RXFP1 expressed in 2%HSA treated human OVCAR-5 cells assessed as intracellular cAMP accumulation by measuring maximal efficacy incubated for 30 mins with 2% HSA pretreated compound by HTRF assay relative to control", "conditions": "filed as agonist"}, "Relaxin receptor 1 [4]": {"biological_target": "T1, Relaxin receptor 1", "experiment": "Agonist activity at human RXFP1 expressed in human OVCAR-5 cells assessed as intracellular cAMP accumulation incubated for 30 mins by HTRF assay"}},
  "note": "pEC50: −log10 of the molar value. Starred links: 1 amine or outer side, 2 acyl side, 3 side chain; linkers in the order of their positions; H or OH if unused. Non-standard residues stand in square brackets, D forms with d. Residues, ends and D or L forms follow the SMILES beside them. Groups on a side chain read outwards from the residue. ξ: configuration not given here. *: point of attachment. γGlu = O=C(O)[C@H](CCC(=O)[*:2])N[*:1]; ξγGlu = O=C(O)C(CCC(=O)[*:2])N[*:1]; Stearoyl = CCCCCCCCCCCCCCCCCC(=O)*; Palmitoyl = CCCCCCCCCCCCCCCC(=O)*; Nle = CCCC[C@H](N)C(=O)O; AEEA = NCCOCCOCC(=O)O; Aib = CC(C)(N)C(=O)O",
  "data": [
    {"smiles": "CCCCCCCCCCCCCCCC(=O)N[C@@H](CCC(=O)N[C@@H](CCC(=O)N[C@@H](CCC(=O)NCCOCCOCC(=O)NCCOCCOCC(=O)NCCOCCOCC(=O)NCCCC[C@H](NC(=O)CNC(=O)[C@H](CCC(=O)O)NC(=O)C(C)(C)NC(=O)C(C)(C)NC(=O)[C@@H](NC(=O)[C@H](CCCCNC(C)=O)NC(=O)[C@H](C)NC(=O)[C@H](CCCNC(=N)N)NC(=O)[C@@H](NC(=O)[C@H](CCCCN)NC(=O)[C@H](CCC(=O)O)NC(=O)[C@H](CCCNC(=N)N)NC(=O)CNC(=O)[C@H](CCC(=O)O)NC(=O)[C@H](CC(C)C)NC(C)=O)C(C)C)[C@@H](C)CC)C(=O)N[C@@H](CO)C(=O)N[C@H](C(=O)N[C@@H](Cc1c[nH]c2ccccc12)C(=O)N[C@@H](CO)C(=O)NC(C)(C)C(=O)N[C@@H](CCCNC(=N)N)C(=O)N[C@@H](CCCCN)C(=O)N[C@@H](CCCCNC(C)=O)C(N)=O)[C@@H](C)O)C(=O)O)C(=O)O)C(=O)O", "note": "(Ac-LEGREKVRAK(Ac)I[Aib][Aib]EGK([AEEA-AEEA-AEEA-γGlu-γGlu-γGlu-Palmitoyl])STWS[Aib]RKK(Ac)-NH2)", "values": [
      {"measurement": "pEC50", "setting": "Relaxin receptor 1 [1]", "result": "< 5.70"},
      {"measurement": "Emax", "setting": "[2]", "result": 88, "unit": "%"}
    ]},
    {"smiles": "CCCCCCCCCCCCCCCCCC(=O)N[C@@H](CCC(=O)N[C@@H](CCC(=O)N[C@@H](CCC(=O)NCCOCCOCC(=O)NCCOCCOCC(=O)NCCOCCOCC(=O)NCCCC[C@H](NC(=O)[C@H](CCCCNC(C)=O)NC(=O)[C@H](CCCCN)NC(=O)[C@H](CCCNC(=N)N)NC(=O)C(C)(C)NC(=O)[C@H](CO)NC(=O)[C@H](Cc1c[nH]c2ccccc12)NC(=O)[C@@H](NC(=O)[C@H](CO)NC(=O)[C@H](CCC(N)=O)NC(=O)CNC(=O)[C@H](CCC(=O)O)NC(=O)C(C)(C)NC(=O)C(C)(C)NC(=O)[C@@H](NC(=O)[C@H](CCCCNC(C)=O)NC(=O)[C@H](C)NC(=O)[C@H](CCCNC(=N)N)NC(=O)[C@@H](NC(=O)[C@H](CCCCN)NC(=O)[C@H](CCC(=O)O)NC(=O)[C@H](CCCNC(=N)N)NC(=O)CNC(=O)[C@H](CCC(=O)O)NC(=O)[C@H](CC(C)C)NC(C)=O)C(C)C)[C@@H](C)CC)[C@@H](C)O)C(N)=O)C(=O)O)C(=O)O)C(=O)O", "note": "(Ac-LEGREKVRAK(Ac)I[Aib][Aib]EGQSTWS[Aib]RKK(Ac)K([AEEA-AEEA-AEEA-γGlu-γGlu-γGlu-Stearoyl])-NH2)", "values": [
      {"measurement": "Emax", "setting": "[3]", "result": 82, "unit": "%"},
      {"measurement": "pEC50", "setting": "Relaxin receptor 1 [1]", "result": 7.33},
      {"measurement": "Emax", "setting": "[2]", "result": 88, "unit": "%"}
    ]},
    {"smiles": "CCCCCCCCCCCCCCCC(=O)N[C@@H](CCC(=O)N[C@@H](CCC(=O)NC(CCC(=O)NCCOCCOCC(=O)NCCOCCOCC(=O)NCCOCCOCC(=O)NCCCC[C@H](NC(=O)[C@H](C)NC(=O)[C@H](CCCNC(=N)N)NC(=O)[C@@H](NC(=O)[C@H](CCCCN)NC(=O)[C@H](CCC(=O)O)NC(=O)[C@H](CCCNC(=N)N)NC(=O)CNC(=O)[C@H](CCC(=O)O)NC(=O)[C@H](CC(C)C)NC(C)=O)C(C)C)C(=O)N[C@H](C(=O)NC(C)(C)C(=O)NC(C)(C)C(=O)N[C@@H](CCC(=O)O)C(=O)NCC(=O)N[C@@H](CCCC)C(=O)N[C@@H](CO)C(=O)N[C@H](C(=O)N[C@@H](Cc1c[nH]c2ccccc12)C(=O)N[C@@H](CO)C(=O)NC(C)(C)C(=O)N[C@@H](CCCNC(=N)N)C(=O)N[C@@H](CCCCN)C(=O)N[C@@H](CCCCNC(C)=O)C(N)=O)[C@@H](C)O)[C@@H](C)CC)C(=O)O)C(=O)O)C(=O)O", "note": "(stereo partly drawn) (Ac-LEGREKVRAK([AEEA-AEEA-AEEA-ξγGlu-γGlu-γGlu-Palmitoyl])I[Aib][Aib]EG[Nle]STWS[Aib]RKK(Ac)-NH2)", "values": [
      {"measurement": "pEC50", "setting": "Relaxin receptor 1 [1]", "result": "< 5.70"},
      {"measurement": "pEC50", "setting": "Relaxin receptor 1 [4]", "result": 7.84},
      {"measurement": "Emax", "setting": "[2]", "result": 78, "unit": "%"}
    ]}
  ]
}
